Assay results reported in ChEMBL document CHEMBL5126560, “2,3-Dihydrobenzo-dioxine piperidine derivatives as potent and selective α2c antagonists” (Bioorg Med Chem Lett, 2022).
≈ marks a conversion by molar mass, not a printed value.

Assays:
Homo sapiens = species: Homo sapiens; experiment: Selectivity ratio of Kb for antagonist activity at human alpha2A receptor stably expressed in CHO cells to Kb for antagonist activity at human alpha2C receptor stably expressed in CHO cells; format: cell-based
[1] = Clearance in human hepatocytes assessed per million cells at 1 uM; format: ADME, cell-based, Hepatocyte; conditions: read-out: CLH
[2] = Clearance in rat hepatocytes assessed per million cells at 1 uM; format: ADME, cell-based, Hepatocyte; conditions: read-out: CLH
[3] = Lipophilicity, log D of compound at pH 7.4; format: physicochemical; conditions: buffer
[4] = Solubility of compound in pH 7.4 buffer at 1 uM; format: physicochemical
[5] = Permeability across apical to basolateral side in human Caco-2 cells; format: ADME, cell-based; conditions: read-out: permeability
[6] = Permeability across basolateral to apical side in human Caco-2 cells; format: ADME, cell-based; conditions: read-out: permeability
[7] = Cmax in rat plasma at 1 mg/kg, po; format: ADME, organism-based; set-up: dose 1 mg/kg, route po
[8] = Unbound Cmax in rat plasma at 1 mg/kg, po by rapid equilibrium dialysis method; format: ADME, organism-based; conditions: in vivo
[9] = Tmax in rat plasma at 1 mg/kg, po; format: ADME, organism-based
[10] = AUC (0 to 6 hrs) in rat plasma at 1 mg/kg, po; format: ADME, organism-based; set-up: time < 6 hr, dose 1 mg/kg, route po
[11] = Cmax in rat brain at 1 mg/kg, po; format: ADME, organism-based; set-up: dose 1 mg/kg, route po
[12] = Unbound Cmax in rat brain at 1 mg/kg, po by rapid equilibrium dialysis method; format: ADME, organism-based; conditions: in vivo
[13] = Tmax in rat brain at 1 mg/kg, po; format: ADME, organism-based
[14] = AUC (0 to 6 hrs) in rat brain at 1 mg/kg, po; format: ADME, organism-based; set-up: time < 6 hr, dose 1 mg/kg, route po; conditions: in vivo
[15] = Unbound fraction in rat plasma at 1 mg/kg, po by rapid equilibrium dialysis method; format: ADME, organism-based
[16] = Unbound fraction in rat brain at 1 mg/kg, po by rapid equilibrium dialysis method; format: ADME, organism-based
in vitro = conditions: human, Caco-2
Description: Efflux ratio of permeability across basolateral to apical side over apical to basolateral side in human Caco-2 cells

[17] = Unbound brain-to-plasma concentration ratio in rat at 1 mg/kg, po; format: ADME, organism-based; conditions: read-out: K(p,uu,brain)

**Q.** For `Oc1cccc([C@H]2CCCN(C[C@H]3COc4ccccc4O3)C2)c1`, which Selectivity ratio (Homo sapiens) is on record?
**A.** 1950

**Q.** What about the hepatocyte CLint at 1 µM [1] of the same molecule?
**A.** 294 µL/min/1e6 cells

**Q.** And the hepatocyte CLint at 1 µM [2]?
**A.** 682 µL/min/1e6 cells

**Q.** What about the logD ([3]; read-out: logD) of the same molecule?
**A.** 3.4

**Q.** What about the solubility at 1 µM [4] of the same molecule?
**A.** 18 µM (≈ 5.86 µg/mL)

**Q.** What about the Papp A→B [5] of the same molecule?
**A.** 16.1 ×10⁻⁶ cm/s

**Q.** And the Papp B→A [6]?
**A.** 24.2 ×10⁻⁶ cm/s

**Q.** What about the Cmax [7] of the same molecule?
**A.** 2 ng/mL

**Q.** And the fCmax [8]?
**A.** < 0.06 nM

**Q.** And the Tmax [9]?
**A.** 30 min

**Q.** What about the AUC(0-t) at 6 h [10] of the same molecule?
**A.** 9 ng·h/mL

**Q.** What about the Cmax [11] of the same molecule?
**A.** 3 ng/g

**Q.** And the fCmax [12]?
**A.** < 0.09 nM

**Q.** And the Tmax [13]?
**A.** 360 min

**Q.** And the AUC [14]?
**A.** 14 ng·h/g

**Q.** And the fraction unbound [15]?
**A.** < 0.01

**Q.** And the fraction unbound [16]?
**A.** < 0.01

**Q.** What about the efflux ratio (in vitro) of the same molecule?
**A.** 1.5

**Q.** Which Selectivity ratio (Homo sapiens) does the source give for `COCc1cccnc1N1CCN(C[C@H]2COc3ccccc3O2)CC1` [ORM-13070] here?
**A.** 4330

**Q.** And the hepatocyte CLint at 1 µM [1]?
**A.** 38.7 µL/min/1e6 cells

**Q.** What about the hepatocyte CLint at 1 µM [2] of the same molecule?
**A.** 135 µL/min/1e6 cells

**Q.** What about the logD [3] of the same molecule?
**A.** 3.3

**Q.** And the solubility at 1 µM [4]?
**A.** 176 µM (≈ 62.6 µg/mL)

**Q.** And the Papp A→B [5]?
**A.** 44.9 ×10⁻⁶ cm/s

**Q.** And the Papp B→A [6]?
**A.** 45 ×10⁻⁶ cm/s

**Q.** And the efflux ratio (in vitro)?
**A.** 1

**Q.** Which results are given for `CCN1C(=O)C(=O)N([C@H]2CCCN(C[C@H]3COc4ccccc4O3)C2)C1=O`?
**A.** Cmax [7]: 209 ng/mL; fCmax [8]: 44 nM; Tmax [9]: 30 min; AUC(0-t) at 6 h [10]: 261 ng·h/mL; Kp uu [17]: 0.4; Cmax [11]: 72 ng/g; fCmax [12]: 18 nM; Tmax [13]: 30 min; AUC [14]: 91 ng·h/g; fraction unbound [15]: 0.078; fraction unbound [16]: 0.096
